Test results from article PMC8122397, “Synthesis of New Triazolopyrazine Antimalarial Compounds” (Molecules, 2021).
Read-outs that look alike come from different tables or passages of the source. Each block holds one compound with its values, some of them ahead of it.

Assays:
Pf 3D7 = conditions: cited from earlier work
[1] = test system: Plasmodium falciparum Dd2 (chloroquine, pyrimethamine, and mefloquine drug-resistant strain); assay: In vitro anti-plasmodial image-based asexual assay, Dd2 strain; format: cell-based; conditions: for Dd2 potency compared to the 3D7 results, in words: Dd2 versus 3D7; for IC50 / inhibition at 80 µM: Plasmodium falciparum, Dd2 strain; for IC50: 72 h; for inhibition at 80 µM: top dose of 80 µM, read-out: Pf Dd2 inhibition at the top dose
Procedure: (§1) The semisynthesized/functionalized triazolopyrazine compounds and the scaffold triazolopyrazine precursors, compounds 1–18, were tested for their antimalarial activity against the 3D7 (chloroquine-sensitive strain) and Dd2 (chloroquine, pyrimethamine, and mefloquine resistant strain) P. falciparum. Where an accurate IC50 value could not be determined due to 100% growth inhibition and a plateau not being reached, but where ≥90% growth inhibition was attained at the top screening concentration, an estimated IC50 value was calculated.
(§2) Plsamodium falciparum 3D7 and Dd2 parasites were cultured in RPMI1640 (Life Technologies, Camarillo, CA, USA) supplemented with 2.5 mg/mL Albumax II, 5% AB human serum, 25 mM HEPES, and 0.37mM hypoxanthine. Ring stage parasites were treated with compounds following two rounds of sorbitol synchronization, as previously described. Artesunate and pyrimethamine were incorporated as controls. Following incubation of assay plates for 72 h at 37 °C, and 5% CO2 and 5% O2, parasites were stained with 2-(4-amidinophenyl)-1H-indole-6-carboxamidine (DAPI) and imaged using an Opera QEHS confocal imaging system (PerkinElmer, Waltham, MA, USA). Images were analyzed, as previously described, using Acapella spot detection software (PerkinElmer, Waltham, MA, USA).
(§3) Normalizing of raw data used the in-plate positive (5 μM puromycin 100% inhibition) and negative (0.4% DMSO–no inhibition) controls to obtain percent inhibition and then used to calculate IC50 values through a 4 parameter logistic curve fitting in GraphPad Prism v.6.

[2] = test system: Plasmodium falciparum 3D7 (chloroquine-sensitive strain); assay: In vitro anti-plasmodial image-based asexual assay, 3D7 strain; format: cell-based; conditions: for IC50 / inhibition at 80 µM: 3D7 strain; for IC50: 72 h; for inhibition at 80 µM: top dose of 80 µM, read-out: Pf 3D7 inhibition at the top dose
Procedure: as §1, §2, §3

[3] = test system: Plasmodium falciparum (Pf); design: method as in earlier work; conditions: OSM master compounds' list; read-out: Pf activity IC50, previously reported OSM data; cited from earlier work
[4] = in vitro, read-out: IC50 (Pf 3D7), Figure 1
[5] = Plasmodium falciparum, 3D7, 72 h, read-out: Pf 3D7 IC50 ± SD
[6] = estimated IC50 as only ~90% inhibition reached at the top dose of 80 µM, read-out: Pf 3D7 IC50 ± SD (estimated, footnote d)
[7] = Plasmodium falciparum, 3D7, 72 h, estimated IC50 as only ~90% inhibition reached at the top dose of 80 µM, read-out: Pf 3D7 IC50 ± SD (estimated, footnote d)
[8] = controls, read-out: Pf Dd2 IC50 ± SD (controls)
[9] = Plasmodium falciparum, 3D7, 72 h, controls, read-out: Pf 3D7 IC50 ± SD (controls)

SMILES: OCC(COc1cncc2nnc(-c3ccc(OC(F)F)cc3)n12)c1ccccc1 (stereo not shown) [OSM-LO-13]
IC50 (Pf 3D7; [4]): 279 nM

IC50 ([1]; read-out: Pf Dd2 IC50 ± SD): 24.7 ± 0.15 µM | IC50 [2, 5]: 6.4 ± 0.1 µM
SMILES: CC(F)(F)c1nccn2c(-c3ccc(Cl)cc3)nnc12 [Compound 16, 3-(4-Chlorophenyl)-8-(1,1-difluoroethyl)-[1,2,4]triazolo[4,3-a]pyrazine]
Dd2 potency compared to the 3D7 results, in words [1]: large decreases in potency

IC50 ([1]; read-out: Pf Dd2 IC50 ± SD): 22.8 ± 13.7 µM | IC50 [2, 6]: 16.8 ± 1.25 µM | IC50 [2, 7]: 16.8 µM
SMILES: FC(F)Oc1ccc(-c2nnc3cncc(Cl)n23)cc1 [Compound 1]

IC50 [2, 7]: 20.2 ± 2.86 µM
SMILES: FC1(F)CCC(c2ncc(Cl)n3c(-c4ccc(Cl)cc4)nnc23)CC1 [Compound 17, 5-Chloro-3-(4-chlorophenyl)-8-(4,4-difluorocyclohexyl)-[1,2,4]triazolo[4,3-a]pyrazine]
Dd2 potency compared to the 3D7 results, in words [1]: large decreases in potency | inhibition at 80 µM [1]: < 41% | antimalarial activity in words ([2]; 3D7): limited activity

IC50 [1, 8]: 0.101 ± 0.0028 µM | IC50 [2, 9]: 0.0953 ± 0.00145 µM
SMILES: COc1ccc(C[C@H](N)C(=O)N[C@H]2[C@@H](O)[C@H](n3cnc4c(N(C)C)ncnc43)O[C@@H]2CO)cc1 [Puromycin, reference compound]

IC50 [2, 9]: 0.01208 ± 4e-05 µM
SMILES: CCc1nc(N)nc(N)c1-c1ccc(Cl)cc1 [Pyrimethamine, reference compound]
inhibition at 80 µM [1]: < 41%

SMILES: Fc1ccc([C@@H](COc2cncc3nnc(-c4ccc(OC(F)F)cc4)n23)OC(F)F)cc1F [OSM-S-377]
IC50 (Pf 3D7; [4]): 16 nM

SMILES: C[Si](C)(C)CCOc1cncc2nnc(-c3ccc(OC(F)F)cc3)n12 [Compound 5]
Dd2 potency compared to the 3D7 results, in words [1]: large decreases in potency | IC50 [2, 5]: 13.9 ± 0.87 µM | melting point: 135 °C

IC50 ([1]; read-out: Pf Dd2 IC50 ± SD): 21.2 ± 5.41 µM | IC50 ([2]; read-out: Pf 3D7 IC50 ± SD): 16.6 ± 1.02 µM | IC50 [2, 5]: 16.7 µM | melting point: 169 to 170 °C
SMILES: FC(F)Oc1ccc(-c2nnc3cncc(OCC(F)(F)F)n23)cc1 [Compound 3, 3-[(4-Difluoromethoxy)phenyl]-5-(2,2,2,-trifluroethoxy)-[1,2,4]triazolo[4,3-α]pyrazine]
IC50 [3]: 10 µM

IC50 ([1]; read-out: Pf Dd2 IC50 ± SD): 32.4 ± 1.44 µM | IC50 [2, 7]: 19.2 ± 0.28 µM
SMILES: Cc1ncc(Cl)n2c(-c3ccc(Cl)cc3)nnc12 [Compound 8, 5-Chloro-3-(4-chlorophenyl)-8-methyl-[1,2,4]triazolo[4,3-α]pyrazine]

IC50 ([1]; read-out: Pf Dd2 IC50 ± SD): 6.18 ± 0.09 µM | IC50 [2, 5]: 4.84 ± 0.13 µM
SMILES: FC(F)(F)c1ncc(Cl)n2c(-c3ccc(Cl)cc3)nnc12 [Compound 14, 5-Chloro-3-(4-chlorophenyl)-8-(trifluoromethyl)-[1,2,4]triazolo[4,3-α]pyrazine]

melting point: 203 to 205 °C
SMILES: FC1(F)CCC(c2nccn3c(-c4ccc(Cl)cc4)nnc23)CC1 [Compound 18, 3-(4-Chlorophenyl)-8-(4,4-difluorocyclohexyl)-[1,2,4]triazolo[4,3-a]pyrazine]
antimalarial activity in words ([2]; 3D7): limited activity | inhibition at 80 µM ([2]; Plasmodium falciparum): < 41%

IC50 ([1]; read-out: Pf Dd2 IC50 ± SD): 14.3 ± 0.62 µM | IC50 [2, 5]: 12.6 µM
SMILES: Clc1ccc(-c2nnc3cncc(Cl)n23)cc1 [Compound 7]

IC50 ([1]; read-out: Pf Dd2 IC50 ± SD): 2.58 ± 0.07 µM | IC50 ([2]; read-out: Pf 3D7 IC50 ± SD): 1.72 ± 0.02 µM | IC50 [2, 5]: 1.7 µM
SMILES: CC(F)(F)c1ncc(Cl)n2c(-c3ccc(Cl)cc3)nnc12 [Compound 15, 5-Chloro-3-(4-chlorophenyl)-8-(1,1-difluoroethyl)-[1,2,4]triazolo[4,3-a]pyrazine]
fold improvement in potency compared to the parent scaffold ([2]; 3D7, compared with scaffold 7): 7.3 fold

SMILES: Cc1ncc(OCC(F)(F)F)n2c(-c3ccc(OC(F)F)cc3)nnc12 [Compound 12, 3-[4-(Difluoromethoxy)phenyl]-8-methyl-5-(2,2,2-trifluoroethoxy)-[1,2,4]triazolo[4,3-a]pyrazine]
Dd2 potency compared to the 3D7 results, in words [1]: large decreases in potency | inhibition at 80 µM [1]: < 41% | growth inhibition at the top screening concentration ([2]; 3D7, predicted IC50 value not calculated): < 90%

IC50 ([1]; read-out: Pf Dd2 IC50 ± SD): 38.2 ± 0.61 µM | IC50 [2, 7]: 27.3 ± 0.82 µM
SMILES: Cc1ncc(Cl)n2c(-c3ccc(C#N)cc3)nnc12 [Compound 10, 4-(5-Chloro-8-methyl-1,2,4-triazolo[4,3-α]pyrazin-3-yl)benzonitrile]

IC50 ([1]; read-out: Pf Dd2 IC50 ± SD): 31.2 ± 0.82 µM | IC50 ([2]; read-out: Pf 3D7 IC50 ± SD): 12.5 ± 0.58 µM | IC50 [2, 5]: 12.5 µM
SMILES: Cc1ncc(Cl)n2c(-c3ccc(OC(F)F)cc3)nnc12 [Compound 11, 5-Chloro-3-[(4-difluoromethoxy)phenyl]-8-methyl-[1,2,4]triazolo[4,3-α]pyrazine]
Dd2 potency compared to the 3D7 results, in words [1]: large decreases in potency

IC50 [1, 8]: 0.002 ± 0.0001 µM | IC50 [2, 9]: 0.00348 ± 0.00014 µM
SMILES: C[C@H]1[C@H](OC(=O)CCC(=O)O)O[C@@H]2O[C@@]3(C)CC[C@H]4[C@H](C)CC[C@@H]1[C@@]24OO3 [Artesunate, reference compound]

IC50 ([1]; read-out: Pf Dd2 IC50 ± SD): 25.9 ± 0.74 µM | IC50 [2, 6]: 18.9 ± 0.66 µM | IC50 [2, 7]: 18.9 µM
SMILES: N#Cc1ccc(-c2nnc3cncc(Cl)n23)cc1 [Compound 9]

SMILES: Oc1nccn2c(-c3ccc(OC(F)F)cc3)nnc12 [Compound 4, 3-[4-(Difluoromethoxy)phenyl]-[1,2,4]triazolo[4,3-α]pyrazin-8-ol]
inhibition at 80 µM ([2]; Plasmodium falciparum): < 41%

IC50 ([1]; read-out: Pf Dd2 IC50 ± SD): 8.2 ± 0.6 µM | IC50 [2, 6]: 11 ± 0.56 µM | IC50 [2, 7]: 11.1 µM
SMILES: Cc1ncc(OCCc2ccccc2)n2c(-c3ccc(OC(F)F)cc3)nnc12 [Compound 13, 3-[4-(Difluoromethoxy)phenyl]-8-methyl-5-(2-phenylethoxy)-[1,2,4]triazolo[4,3-a]pyrazine]
Dd2 potency compared to the 3D7 results, in words [1]: slight increase in potency | fold decrease in potency on methylation ([2]; 3D7, compared with compound 2): 37 fold

SMILES: C[Si](C)(C)CCOc1nccn2c(-c3ccc(OC(F)F)cc3)nnc12 [Compound 6, 3-[4-(Difluoromethoxy)phenyl]-8-[2-(trimethylsilyl)ethoxy)-[1,2,4]triazolo[4,3-α]pyrazine]
inhibition at 80 µM ([2]; Plasmodium falciparum): < 41%

SMILES: OC(COc1cncc2nnc(-c3ccc(OC(F)F)cc3)n12)c1ccc(F)c(F)c1 (stereo not shown) [OSM-S-390]
IC50 (Pf 3D7; [4]): 70 nM

IC50 ([1]; read-out: Pf Dd2 IC50 ± SD): 0.54 ± 0.02 µM | IC50 ([2]; read-out: Pf 3D7 IC50 ± SD): 0.31 ± 0.01 µM | IC50 [2, 5]: 0.3 µM
SMILES: FC(F)Oc1ccc(-c2nnc3cncc(OCCc4ccccc4)n23)cc1 [Compound 2, 3-[4-(Difluoromethoxy)phenyl]-5-(2-phenylethoxy)-[1,2,4]triazolo[4,3-α]pyrazine]
IC50 (Pf 3D7; [4]): 300 nM | IC50 (Pf 3D7; read-out: IC50 against Pf 3D7, previously reported): 301 nM
